Measurements: patent US10383948B2, “Anti-cMet antibody drug conjugates and methods for their use” (AbbVie Inc., priority 2016, dated 2019)

Key:
NSCLC = assay: Phase 1b combination with erlotinib; type: in vivo, human; conditions: ABBV-399 2.7 mg/kg once every 21 days plus erlotinib 150 mg orally every day
Description: ABBV-399 will be combined with standard doses of erlotinib, cetuximab, bevacizumab or nivolumab starting at an ABBV-399 dose level below the MTD or MAD and then escalated no higher than MTD or MAD determined in the monotherapy dose-escalation/expansion. Dose limiting toxicity definitions will apply to the dose-escalation portion of each Combination.

[1] = system: HMEC (mammary epithelial); assay: Cytotoxicity assay (CellTiter-Glo, 6 days); type: cell-based; conditions: HMEC (mammary epithelial) non-tumor; relative to untreated control at ≤1 μg/mL in a six day proliferation
Protocol: (§1) Tumor cells were plated at 2000-5000 cells/well in 180 μL growth medium containing 10% FBS in 96-well plates, and cultured at 37° C. in a humidified incubator with 5% C02. The following day, titrations of antibodies or ADCs in 20 μL were added and cells were incubated for 6 days. Cell viability was determined using a CellTiter-Glo Luminescent Cell Viability Assay (Promega) according to the manufacturer's instructions. A non-binding, irrelevant negative control ADC conjugated to MMAE was also included in all assays to confirm that cell killing was antigen dependent.

[2] = system: PrEC (prostate epithelial); assay: Cytotoxicity assay (CellTiter-Glo, 6 days); type: cell-based; conditions: PrEC (prostate epithelial) non-tumor; relative to untreated control at ≤1 μg/mL in a six day proliferation
Protocol: as §1

[3] = system: HUVEC (vascular endothelial); assay: Cytotoxicity assay (CellTiter-Glo, 6 days); type: cell-based; conditions: HUVEC (vascular endothelial) non-tumor; relative to untreated control at ≤1 μg/mL in a six day proliferation
Protocol: as §1

[4] = system: NHDF (dermal fibroblasts); assay: Cytotoxicity assay (CellTiter-Glo, 6 days); type: cell-based; conditions: NHDF (dermal fibroblasts) non-tumor; relative to untreated control at ≤1 μg/mL in a six day proliferation
Protocol: as §1

metastatic solid tumors = assay: Phase 1 monotherapy, best response (RECIST 1.1); type: in vivo, human; conditions: all treated patients
Description: Three to 6 subjects will be enrolled in each cohort and dosed once every 21 (one dose per 21-day Cycle) or 14 (2 doses per 28-day Cycle) days until disease progression or unacceptable toxicity to determine the maximum tolerated dose (MTD) or maximally administered dose (MAD). Dose limiting toxicity (DLT) definitions will be used to make decisions regarding dose-escalation. […] On the dose-expansion, subjects with advanced solid tumors with cMet overexpression, MET exon 14 mutation or MET amplification will be enrolled.
Dosing began at 0.15 mg/kg and escalated to 0.3, 0.6, 1.2, 1.8, 2.4, 3.0 and 3.3 mg/kg in subsequent cohorts as tolerated. Alternative doses (intermediate or higher) or dosing schedules may be employed based on clinical safety and PK data. A dose of 2.7 mg/kg was also utilized based on the clinical safety and PK data. […] It is not administered as an intravenous push or bolus.
Baseline radiographic tumor assessments with CT (or MRI) of the head, chest, abdomen, and pelvis will be obtained no more than 28 days prior to Cycle 1 Day 1. CT scan (or MRI) will then be repeated approximately every 6 weeks after start of therapy to evaluate the extent of tumor burden. Radiographic tumor assessments will continue until disease progression documented by imaging, start of a new anti cancer therapy, death or withdrawal of consent. Response evaluation will be based on RECIST version 1.1. […]

NCI-H1573 = assay: Cytotoxicity assay (CellTiter-Glo, 6 days); type: cell-based, human; conditions: NCI-H1573 lung cancer
Protocol: as §1
as §1, with “of” for “of antibodies or”, “antigen-dependent.” for “antigen dependent.”

Hs746T = assay: Cytotoxicity assay (CellTiter-Glo, 6 days); type: cell-based, human
Protocol: as §1
as §1, with “of” for “of antibodies or”, “antigen-dependent.” for “antigen dependent.”

NCI-H441 = assay: Cytotoxicity assay (CellTiter-Glo, 6 days); type: cell-based, human; conditions: NCI-H441 lung cancer; relative to untreated control at ≤1 μg/mL in a six day proliferation
Protocol: as §1
as §1, with “of” for “of antibodies or”, “antigen-dependent.” for “antigen dependent.”

KP4 = assay: Cytotoxicity assay (CellTiter-Glo, 6 days); type: cell-based, human; conditions: KP4 pancreatic cancer; relative to untreated control at ≤1 μg/mL in a six day proliferation
Protocol: as §1
as §1, with “of” for “of antibodies or”, “antigen-dependent.” for “antigen dependent.”

SW48 = assay: Cytotoxicity assay (CellTiter-Glo, 6 days); type: cell-based, human; conditions: SW48 colorectal cancer; relative to untreated control at ≤1 μg/mL in a six day proliferation
Protocol: as §1
as §1, with “of” for “of antibodies or”, “antigen-dependent.” for “antigen dependent.”

A549 = assay: Cytotoxicity assay (CellTiter-Glo, 6 days); type: cell-based, human; conditions: A549 lung cancer; relative to untreated control at ≤1 μg/mL in a six day proliferation
Protocol: as §1
as §1, with “of” for “of antibodies or”, “antigen-dependent.” for “antigen dependent.”

[5] = system: Hs746T ABT-700R xenografts; assay: ABT-700-refractory xenograft efficacy; type: in vivo, mice

“ABBV-399: ADC comprised of the cMet targeting antibody ABT-700 conjugated to MMAE through a valine citrulline (vc) linker” was tested, and the “patients with partial response” value (NSCLC) was 2/6, the “patients with progressive disease (new lesions)” value (NSCLC) was 1/6 and the “Maximal Killing” value [1] was 0%. For the same substance, the “Maximal Killing” value [2] was 0%, the “Maximal Killing” value [3] was 6% and the “Maximal Killing” value [4] was 0%. For the same substance, the “best response: progressive disease” value (metastatic solid tumors; 17/40) was 42.5%, the “best response: stable disease” value (metastatic solid tumors; 20/40) was 50% and the “Maximal Killing” value (NCI-H1573; relative to untreated control at ≤1 μg/mL in a six day proliferation) was 18%. For the same substance, the IC50 (NCI-H1573; read-out: ABBV-399 IC50, cell proliferation assay, Table 7B) was 18 nM, the “Maximal Killing” value (Hs746T; Hs746T gastric cancer, relative to untreated control at ≤1 μg/mL in a six day proliferation) was 87% and the “inhibition of proliferation” value (Hs746T; MET-amplified Hs746T gastric cancer cells, FIG. 4) was “inhibited proliferation”. For the same substance, the “Maximal Killing” value (NCI-H441) was 56%, the “Maximal Killing” value (KP4) was 53% and the “Maximal Killing” value (SW48) was 0%. For the same substance, the “Maximal Killing” value (A549) was 22%, the “tumor response” value ([5]; Hs746T ABT-700R of approximately 300 mm^3) was “complete tumor regression” and the “tumor response” value ([5]; refractory tumors at mean cohort size approximately 1,000 mm^3, followed by eventual outgrowth) was “tumor regression”.
